Test results from PMC7574383 (Epigenetics, 2020).

Tests used:
[1] = tested on: Caco-2 cell monolayer; test: Caco-2 permeability assay; type: in vitro ADME, human; settings: Caco-2 monolayer, compounds at 100 μg/ml, after three hours of treatment
[2] = tested on: HepG2 cells; test: Senescence-associated β-galactosidase assay, HepG2; type: cell-based, human; settings: HepG2, DOXO 0.5 μM, 48 h
[3] = tested on: H9c2 cells; test: Senescence-associated β-galactosidase assay, H9c2; type: cell-based, rat; settings: H9c2, DOXO 0.5 μM, 48 h

CC(C)NCC(O)COc1cccc2ccccc12 (stereo not drawn) [Propranolol]
Permeability (%) [1]: 82.4%

COc1cccc2c1C(=O)c1c(O)c3c(c(O)c1C2=O)C[C@@](O)(C(=O)CO)C[C@@H]3O[C@H]1C[C@H](N)[C@H](O)[C@H](C)O1 [DOXO, doxorubicin]
SA β-gal-positive cells induced [2]: about 60%
SA β-gal-positive cells induced [3]: ~35%
